Assay results reported in ChEMBL document CHEMBL1201862, “PubChem BioAssay data set” (2004).
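Growth conditions: 96-well plates. Treatment: test compound, 48 hours, 5 concentrations. Analysis: linear interpolation between bracketing concentrations; unreached endpoints set to highest concentration. The concentration for 50% growth inhibition is given as GI50.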 Calls of active or inactive are those of the source. Cut-off read from the data, not from the text of the source: active = GI50 up to about 1.1 µM and inactive = higher.

Key:
Experiment in all cases: NCI tumour cell line growth inhibition, 48 h
UACC-257 = system: UACC-257
NCI-H226 = system: NCI-H226
NCI-H23 = system: NCI-H23
OVCAR-8 = system: OVCAR-8
CAKI-1 = system: CAKI-1
OVCAR-3 = system: OVCAR-3
A549 = system: A549
SF-295 = system: SF-295
NCI/ADR-RES = system: NCI/ADR-RES
EKVX = system: EKVX
HCT-15 = system: HCT-15
ACHN = system: ACHN
HL-60 = system: HL-60
OVCAR-5 = system: OVCAR-5
RPMI-8226 = system: RPMI-8226
MDA-MB-435 = system: MDA-MB-435
NCI-H522 = system: NCI-H522
KM12 = system: KM12
RXF 393 = system: RXF 393
SK-MEL-28 = system: SK-MEL-28
T47D = system: T47D
HOP-62 = system: HOP-62
TK-10 = system: TK-10
SF-268 = system: SF-268
786-0 = system: 786-0
COLO 205 = system: COLO 205
Hs-578T = system: Hs-578T
MDA-MB-231 = system: MDA-MB-231
DU-145 = system: DU-145
HOP-92 = system: HOP-92
SNB-19 = system: SNB-19
PC-3 = system: PC-3
BT-549 = system: BT-549
SR = system: SR
SF-539 = system: SF-539
Malme-3M = system: Malme-3M
SK-OV-3 = system: SK-OV-3
IGROV-1 = system: IGROV-1
HT-29 = system: HT-29
HCT-116 = system: HCT-116
HCC 2998 = system: HCC 2998
SW-620 = system: SW-620
UACC-62 = system: UACC-62
LOX IMVI = system: LOX IMVI
SK-MEL-2 = system: SK-MEL-2
MCF7 = system: MCF7
U-251 = system: U-251
M14 = system: M14
MOLT-4 = system: MOLT-4
CCRF-CEM = system: CCRF-CEM
MDA-N = system: MDA-N
OVCAR-4 = system: OVCAR-4
UO-31 = system: UO-31
SN12C = system: SN12C

O=C1NC(N2CCCCC2)=N/C1=C\c1cccs1
GI50 (UACC-257): > 100 µM (inactive)
GI50 (NCI-H226): > 100 µM (inactive)
GI50 (NCI-H23): > 100 µM (inactive)
GI50 (OVCAR-8): > 100 µM (inactive)
GI50 (CAKI-1): > 100 µM (inactive)
GI50 (OVCAR-3): > 100 µM (inactive)
GI50 (A549): > 100 µM (inactive)
GI50 (SF-295): > 100 µM (inactive)
GI50 (NCI/ADR-RES): > 100 µM (inactive)
GI50 (EKVX): > 100 µM (inactive)
GI50 (HCT-15): > 100 µM
GI50 (ACHN): > 100 µM (inactive)
GI50 (HL-60): > 100 µM (inactive)
GI50 (OVCAR-5): > 100 µM (inactive)
GI50 (RPMI-8226): > 100 µM (inactive)
GI50 (MDA-MB-435): > 100 µM (inactive)
GI50 (NCI-H522): > 100 µM (inactive)
GI50 (KM12): > 100 µM (inactive)
GI50 (RXF 393): > 100 µM (inactive)
GI50 (SK-MEL-28): > 100 µM (inactive)
GI50 (T47D): > 100 µM (inactive)
GI50 (HOP-62): > 100 µM (inactive)
GI50 (TK-10): > 100 µM (inactive)
GI50 (SF-268): > 100 µM (inactive)
GI50 (786-0): > 100 µM (inactive)
GI50 (COLO 205): > 100 µM (inactive)
GI50 (Hs-578T): > 100 µM (inactive)
GI50 (MDA-MB-231): > 100 µM (inactive)
GI50 (DU-145): > 100 µM (inactive)
GI50 (HOP-92): > 100 µM (inactive)
GI50 (SNB-19): > 100 µM (inactive)
GI50 (PC-3): > 100 µM (inactive)
GI50 (BT-549): > 100 µM (inactive)
GI50 (SR): > 100 µM (inactive)
GI50 (SF-539): > 100 µM (inactive)
GI50 (Malme-3M): > 100 µM (inactive)
GI50 (SK-OV-3): > 100 µM (inactive)
GI50 (IGROV-1): > 100 µM (inactive)
GI50 (HT-29): > 100 µM (inactive)
GI50 (HCT-116): > 100 µM (inactive)
GI50 (HCC 2998): > 100 µM (inactive)
GI50 (SW-620): > 100 µM (inactive)
GI50 (UACC-62): > 100 µM (inactive)
GI50 (LOX IMVI): > 100 µM (inactive)
GI50 (SK-MEL-2): > 100 µM (inactive)
GI50 (MCF7): > 100 µM (inactive)
GI50 (U-251): > 100 µM (inactive)
GI50 (M14): > 100 µM (inactive)
GI50 (MOLT-4): > 100 µM (inactive)
GI50 (CCRF-CEM): > 100 µM (inactive)
GI50 (MDA-N): > 100 µM (inactive)
GI50 (OVCAR-4): > 100 µM (inactive)
GI50 (UO-31): > 100 µM (inactive)
GI50 (SN12C): > 100 µM (inactive)
